Tested on: KP and KP^M cell lines
Assay: Cell viability assay (Cell Titer Aqueous Kit)
Assay type: cell-based, mouse
Details: increasing doses, 24 hours, KP and KP^M vs 3TZ and LKR13 cells
Experimental: FIG. 2: Bortezomib sensitivity correlates with basal NF-κB activity in KP lung adenocarcinoma cell lines. […] 3TZ, diamond; LKR13, triangle; KP, solid lines; KPM, dashed lines. Error bars are SD (n=3). (2B) lung cancer cell lines with high basal NF-κB activity were sensitive to bortezomib. NF-κB p65 DNA-binding activity was determined by ELISA from nuclear extracts of KP cell lines and LKR13 cells (set as 1). Relative viability was measured after 5 nM bortezomib treatment, as in 2A. FIG. 17: Bay-117082 induces cell death In KP cells. […] (17B) Bay-117082 induces apoptosis in KP cells. Cells were treated with 10IJM Bay-117082 for 48 hours. […] Cell culture conditions were as described recently (30).

CC(C)C[C@H](NC(=O)[C@H](Cc1ccccc1)NC(=O)c1cnccn1)B(O)O [bortezomib, N-(2-pyrazine) carbonyl-L-phenylalanine-L-leucine boronic acid]
sensitivity in cell viability dose-response: higher sensitivity

From patent US20150150892A1, “METHODS AND PRODUCTS RELATED TO LUNG CANCER” (Massachusetts Institute of Technology, priority 2012, published 2015)
